Source: patent US20160303127A1, “COMBINATION THERAPY WITH C-MET AND EGFR ANTAGONISTS” (Genentech, Inc., priority 2008, published 2016)

Tested on: EBC-1 shMet-4.5 tumors
Assay: Combination efficacy of erlotinib with c-met knockdown (Dox) in the EBC-1 shMet-4.5 NSCLC xenograft model
Format: in vivo, nude mice (nu/nu)
Conditions: EBC-1 shMet-4.5 xenograft
Method: Test material. Erlotinib (Tarceva™) was provided by OSI Pharmaceuticals to the Formulations Department at Genentech and was weighed out along with a sufficient amount of vehicle (methylcellulose tween (MCT)). Materials were stored in a refrigerator set to maintain a temperature range of 4° C. to 8° C. Anti-c-met monovalent monoclonal antibody MetMAb (rhuOA5D5v2) (WO2007/063816) was provided by the Antibody Engineering Department at Genentech, Inc., in a clear liquid form. The EBC-1 cell line was obtained from Japanese Collection of Research Bioresources (JCRB). Species. Forty nude mice (nu/nu) were obtained from Charles River Laboratories (CRL) and were acclimatized for at least one week prior to being put on study. Animals were housed in ventilated caging systems in rooms with filters supplying High-Efficiency Particulate Air (HEPA). Only animals that appeared to be healthy and were free of obvious abnormalities were used for the study. Study design. EBC-1 cells were cultured in growth media that consisted of RPMI 1640 media (Invitrogen), 2 mM L-glutamine, and 10% fetal bovine serum. To prepare cells for inoculation into mice, cells were trypsinized, washed with ten milliliters of sterile 1× phosphate buffered saline (PBS). A subset of cells was counted by trypan blue exclusion and the remainder of cells was resuspended in 100 μl of sterile 1× PBS to a concentration of 5×10^7 cells per milliliter. Mice were inoculated subcutaneously in the right sub-scapular region with 5×10^6 EBC-1 cells. […] Mice in Group 1 (control group) were treated with 100 μL vehicle control, methylcellulose tween (MCT), every day (QD) via oral gavage (PO) and were switched to drinking water containing 5% sucrose. […] Dox and sucrose water was changed every 2-3 days. Erlotinib and MCT were dosed for 14 days, stopped for 6 days and then resumed for the remainder of the study (20 days). […] All studies and handling of mice complied with the Institutional Animal Care and Use Committee (IACUC) guidelines. [table] Tumor and Body Weight Measurement. […] Fowler Company, Inc.; Newton, Mass.). The following formula was used with Excel v11.2 (Microsoft Corporation; Redmond, Wash.) to calculate tumor volume: […] Efficacy Data Analysis. Tumor inhibition was plotted using KaleidaGraph 3.6 (Synergy Software; Reading, Pa.). Percent growth inhibition (% Inh) at Day 17 was calculated as follows: […] Tumor incidence (TI) was determined by the number of measurable tumors in each group at Day 17. […] Mean tumor volume and standard error of the mean (SEM) were calculated using JMP software, version 5.1.2 (SAS Institute; Cary, N.C.). Data analysis and generation of p-values using either Student's t-test or the Dunnett's t-test was also done using JMP software, version 5.1.2. […] Mice were then grouped into four treatment arms; […] Vehicles, Group 2: Doxycycline (Dox), Group 3: erlotinib (100 mg/kg), and Group 4: erlotinib+Dox (See Table 6).

[1] = 10 mice per group, any day during the study

C#Cc1cccc(Nc2ncnc3cc(OCCOC)c(OCCOC)cc23)c1 [erlotinib, N-(3-ethynylphenyl)-6,7-bis(2-methoxyethoxy)-4-quinazolinamine]
number of complete responses (CR; tumor regression of 100%) [1]: no
number of partial responses (PR; tumor regression >50% but <100% of starting tumor volume) [1]: no
reduction in tumor growth compared to the vehicle control (tumor inhibition) (nude mice, day 19, erlotinib 100 mg/kg PO QD, Dox in drinking water): −6%
